Where “and” joins values, the source holds several entries; their conditions need not be identical. Equal values may be shown once. Toxic doses and inconclusive results are not listed. How the source made its calls: active means survival T/C of 150% or more; inactive means T/C below 125% in these data.
Tested on: P388 leukemia ip, CD2F1 mice, survival T/C
Test: NCI In Vivo Anticancer Drug Screen. Data for tumor model P388 Leukemia (intraperitoneal) in CD2F1 (CDF1) mice
Conditions: endpoint: median survival time, higher = longer survival
In short: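 Mice carrying the transplanted tumor received test compound or vehicle. Survival was recorded in each group, and the value is the treated-group measurement divided by that of the vehicle-treated control group.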

[1] = dose: 50.0 mg/kg/injection, schedule: Q01DX009 (ip), vehicle: saline with Tween-80
[2] = dose: 100.0 mg/kg/injection, schedule: Q01DX009 (ip), vehicle: saline with Tween-80
[3] = dose: 200.0 mg/kg/injection, schedule: Q01DX009 (ip), vehicle: saline with Tween-80
[4] = dose: 50.0 mg/kg/injection, schedule: Q01DX005 (ip), vehicle: saline with Tween-80
[5] = dose: 100.0 mg/kg/injection, schedule: Q01DX005 (ip), vehicle: saline with Tween-80
[6] = dose: 200.0 mg/kg/injection, schedule: Q01DX005 (ip), vehicle: saline with Tween-80
[7] = dose: 50.0 mg/kg/injection, schedule: Q01DX009 (ip), vehicle: saline
[8] = dose: 200.0 mg/kg/injection, schedule: Q01DX009 (ip), vehicle: saline
[9] = dose: 60.0 mg/kg/injection, schedule: Q01DX005 (ip), vehicle: saline with Tween-80
[10] = dose: 120.0 mg/kg/injection, schedule: Q01DX005 (ip), vehicle: saline with Tween-80
[11] = dose: 240.0 mg/kg/injection, schedule: Q01DX005 (ip), vehicle: saline with Tween-80

Measured: T/C

Clc1cccn2cnnc12
inactive: [1] 98 % of control | [2] 103 % of control | [3] 100 % of control

CC(=O)OC1CCC2(C)OC(=O)CC2C1 (configuration not stated)
inactive: [4] 98 % of control | [5] 100 % of control | [6] 100 % of control

CCNC1CCC(Nc2ccnc3cc(Cl)ccc23)CC1 (configuration not stated)
inactive: dose: 50.0 mg/kg/injection, schedule: Q01DX005 (ip), vehicle: Klucel (hydroxypropylcellulose) (HPC) 95 % of control | dose: 100.0 mg/kg/injection, schedule: Q01DX005 (ip), vehicle: Klucel (hydroxypropylcellulose) (HPC) 87 % of control

CCN(CC)C(C)(C)C(=O)/C=C/c1ccc(Cl)c(Cl)c1
inactive: dose: 60.0 mg/kg/injection, schedule: Q01DX005 (ip), vehicle: saline 102 % of control | dose: 120.0 mg/kg/injection, schedule: Q01DX005 (ip), vehicle: saline 101 % of control | dose: 240.0 mg/kg/injection, schedule: Q01DX005 (ip), vehicle: saline 100 % of control

c1cc[n+]2cc3cc4c(cc3cc2c1)OCO4
inactive: dose: 3.13 mg/kg/injection, schedule: Q01DX009 (ip), vehicle: distilled water + Tween-80 103 % of control and 107 % of control | dose: 6.25 mg/kg/injection, schedule: Q01DX009 (ip), vehicle: distilled water + Tween-80 119 % of control and 123 % of control | dose: 25.0 mg/kg/injection, schedule: Q01DX009 (ip), vehicle: distilled water + Tween-80 120 % of control and 94 % of control

CC/C(=N\NS(=O)(=O)c1ccc(C)cc1)c1ccc(OC)c(C)c1
inactive: [1] 105 % of control | [7] 104 % of control | [2] 97 % of control | [3] 99 % of control | [8] 96 % of control

CN1c2ccc(Cl)cc2C(=O)NC1c1ccc([N+](=O)[O-])s1 (configuration not stated)
inactive: [1] 106 % of control | [2] 108 % of control | [3] 113 % of control | dose: 400.0 mg/kg/injection, schedule: Q01DX009 (ip), vehicle: saline with Tween-80 115 % of control

COc1cc(C(NC(N)=O)c2cc3c(cc2OC(C)=O)OCO3)cc(OC)c1OC (configuration not stated)
inactive: dose: 60.0 mg/kg/injection, schedule: Q01DX005 (ip), vehicle: Klucel (hydroxypropylcellulose) (HPC) 90 % of control | dose: 120.0 mg/kg/injection, schedule: Q01DX005 (ip), vehicle: Klucel (hydroxypropylcellulose) (HPC) 86 % of control

COc1cc2c(c(OC)c1)C(O)=C1C(=O)C3C(O)=C(C(=O)NC(C)(C)C)C(=O)C(NC(=S)c4ccccc4)C3CC1C2 (configuration not stated)
inactive: [9] 92 % of control | [10] 94 % of control | [11] 101 % of control

C/C(CCCC(C)(C)C(=O)O)=N/Nc1ccc([N+](=O)[O-])cc1[N+](=O)[O-]
inactive: dose: 12.5 mg/kg/injection, schedule: Q01DX009 (ip), vehicle: saline with Tween-80 104 % of control | dose: 25.0 mg/kg/injection, schedule: Q01DX009 (ip), vehicle: saline with Tween-80 100 % of control | [1] 92 % of control and 95 % of control

CCOC(=O)c1cccc([N+](=O)[O-])c1C(=O)OCCN(CC)CC
inactive: dose: 100.0 mg/kg/injection, schedule: Q04DX002 (ip), vehicle: saline with Tween-80 100 % of control | dose: 200.0 mg/kg/injection, schedule: Q04DX002 (ip), vehicle: saline with Tween-80 122 % of control

Cn1c(=O)c(C#N)c2n(C)c3ccccc3n2c1=O
inactive: [9] 93 % of control | [10] 89 % of control | [11] 89 % of control

CC(=O)OC1OC(CS[As](C)C)C(OC(C)=O)C(OC(C)=O)C1OC(C)=O (configuration not stated)
inactive: [7] 104 % of control | dose: 100.0 mg/kg/injection, schedule: Q01DX009 (ip), vehicle: saline 106 % of control | [8] 104 % of control

CCO/C(C)=C\C(=O)O
inactive: [4] 98 % of control | [5] 97 % of control | [6] 97 % of control

Source: PubChem BioAssay AID330 (DTP/NCI, 2004)
